For orientation: IC50 means the concentration that gives 50% inhibition. Low readings indicate higher potency, high ones lower potency.

For this test, the system named is A2780. Kind of test: Antiproliferative activity against human A2780 cells. The format is functional, cell-based.
Turning to `C[C@H]1c2ccoc2C[C@H]2[C@H]1CC[C@H]1[C@@](CO)(C(=O)O)CCC[C@]21C` [CORDYLANE C], the IC50 is > 60 µM.
Under `C=C1c2ccoc2C[C@H]2[C@H]1CC[C@H]1[C@@](CO)(C(=O)O)CCC[C@]21C` [CORDYLANE D] stands > 60 µM; under `CC(=O)OC[C@@]1(CO)CCC[C@]2(C)[C@H]3Cc4occc4[C@H](C)[C@@H]3C[C@@H](OC(C)=O)[C@@H]12` [CORDYLANE A], 10 µM; under `CC(=O)OC[C@]1(CO)CCC[C@]2(C)[C@H]3Cc4occc4[C@H](C)[C@@H]3C[C@@H](OC(C)=O)[C@@H]12` [CORDYLANE B], 36 µM.

The record behind these values is ChEMBL document CHEMBL1144691, “Antiproliferative cassane diterpenoids of Cordyla madagascariensis ssp. madagascariensis from the Madagascar rainforest” (J Nat Prod, 2008).
